The values below come from article PMC5361737, “Potent and Selective KDM5 Inhibitor Stops Cellular Demethylation of H3K4me3 at Transcription Start Sites and Proliferation of MM1S Myeloma Cells” (Cell Chemical Biology, 2017).

For one test, the system named is other 2-OG oxygenases. In words: Selectivity panel, other 2-OG oxygenases (AlphaScreen or MALDI-TOF). The class given is biochemical. The conditions noted are these: AlphaScreen or MALDI-TOF enzymatic assays; read-out: no inhibition below (any of the other 2-OG oxygenases). Background: Alpha assays give light when donor and acceptor beads are brought close together.

For test [1], the system named is endogenous KDM5 demethylases. Put plainly: IF assay of endogenous H3K4me3 in untransfected HeLa cells. Type of test: cell-based, human. The conditions noted are these: 48 hr. How it is done: In brief, cells were transiently transfected with either the FLAG-tagged WT or mutant demethylase described above, using Lipofectamine 2000 (Life Technologies). Four hours after transfection the cells were treated with serial dilutions of compound for 24 hr. The cells were subsequently fixed and stained with an anti-FLAG antibody (Sigma F3165) as well as an anti-methylated histone antibody (H3K4me3 Diagenode C15410003, H3K9me2 Abcam ab1220, H3K9me3 Abcam ab8898, H3K27me3 Millipore 07–449, or H3K36me2 Active Motif 61019). The secondary antibodies were labeled with either Alexa Fluor 488 or 568 (Life Technologies). Image acquisition was conducted using the Operetta High Content Imaging System (PerkinElmer) and image analysis was performed with the Columbus software (PerkinElmer). After the DAPI-stained nuclei were automatically identified, a minimum threshold for anti-FLAG intensity was set so that only cells highly expressing the demethylase were analyzed. Assays assessing the endogenous H3K4me3 methyl mark changes were performed accordingly without overexpressing KDM5 after compounds treatment for 48 hr.
Figure S1 related to Figure 2 Inhibition of KDM4/5 mediated H3K4me3
(A) EC50 curves of KDOAM-20, KDOAM-21 and KDOAM-32 in KDM5B and KDM4C (B)
and KDOAM-32 in untransfected HeLa cells.
(1 picture or pasted object on this page, not shown here)

A further test deals with A2A (h) (Homo sapiens, UniProt P29274). In words: Cerep Express Panel, agonist radioligand. The class given is binding. The conditions noted are these: read-out: % Inhibition of reference (10 µM).
In the next test the target is 5-HT2B (h) (Homo sapiens, UniProt P41595). Put plainly: Cerep Express Panel, agonist radioligand. The class given is binding. As to conditions: read-out: % Inhibition of reference (10 µM).
Another test addresses 5-HT6 (h) (Homo sapiens, UniProt P50406). In words: Cerep Express Panel, agonist radioligand. Type of test: binding. The conditions noted are these: read-out: % Inhibition of reference (10 µM).

Sequence of A2A (h) (P29274 whole entry): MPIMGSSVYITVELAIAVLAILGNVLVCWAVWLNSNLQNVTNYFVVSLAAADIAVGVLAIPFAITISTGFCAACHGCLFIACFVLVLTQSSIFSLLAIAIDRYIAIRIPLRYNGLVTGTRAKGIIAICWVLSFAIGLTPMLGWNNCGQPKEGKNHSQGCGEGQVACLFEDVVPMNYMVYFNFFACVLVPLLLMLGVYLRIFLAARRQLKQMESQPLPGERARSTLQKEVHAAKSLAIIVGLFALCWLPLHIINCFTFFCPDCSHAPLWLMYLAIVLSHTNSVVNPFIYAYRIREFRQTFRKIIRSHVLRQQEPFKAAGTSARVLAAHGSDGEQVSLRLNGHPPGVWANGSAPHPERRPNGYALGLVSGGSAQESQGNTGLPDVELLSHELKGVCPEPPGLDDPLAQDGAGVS
Sequence of 5-HT2B (h) (P41595 whole entry): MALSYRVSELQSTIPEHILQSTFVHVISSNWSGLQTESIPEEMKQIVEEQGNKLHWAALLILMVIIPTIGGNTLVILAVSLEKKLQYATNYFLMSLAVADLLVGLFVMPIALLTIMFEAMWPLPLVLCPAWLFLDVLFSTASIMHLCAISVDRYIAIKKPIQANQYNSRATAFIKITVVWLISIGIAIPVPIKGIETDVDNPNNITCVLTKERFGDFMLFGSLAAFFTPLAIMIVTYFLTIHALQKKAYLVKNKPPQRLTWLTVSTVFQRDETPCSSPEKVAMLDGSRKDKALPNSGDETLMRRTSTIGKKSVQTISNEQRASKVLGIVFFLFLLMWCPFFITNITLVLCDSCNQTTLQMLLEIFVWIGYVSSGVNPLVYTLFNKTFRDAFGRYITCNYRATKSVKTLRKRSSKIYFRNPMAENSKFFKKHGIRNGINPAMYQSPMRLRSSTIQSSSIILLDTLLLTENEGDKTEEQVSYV
Sequence of 5-HT6 (h) (P50406 whole entry): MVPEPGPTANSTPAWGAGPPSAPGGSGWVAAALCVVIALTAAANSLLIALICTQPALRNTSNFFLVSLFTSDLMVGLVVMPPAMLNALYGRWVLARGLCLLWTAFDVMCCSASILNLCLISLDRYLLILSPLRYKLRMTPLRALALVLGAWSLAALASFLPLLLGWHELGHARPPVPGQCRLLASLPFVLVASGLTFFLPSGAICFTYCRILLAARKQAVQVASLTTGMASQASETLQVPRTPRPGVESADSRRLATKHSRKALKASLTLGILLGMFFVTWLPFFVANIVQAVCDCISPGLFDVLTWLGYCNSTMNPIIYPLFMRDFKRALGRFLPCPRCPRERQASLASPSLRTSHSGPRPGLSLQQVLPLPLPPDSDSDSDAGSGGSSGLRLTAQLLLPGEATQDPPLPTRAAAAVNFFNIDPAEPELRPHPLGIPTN

As to `CCN(CCN(C)C)C(=O)CNCc1cc(C(N)=O)ccn1` [KDOAM-25], in the test with other 2-OG oxygenases, the IC50 is not below 4.8 µM. Moreover, the “inhibition of endogenous KDM5 demethylases, potency in words” value in test [1] is on record as “potencies similar to those seen in the overexpression assay”. For the same compound, the inhibition at 10 µM at A2A (h) was -2%; on 5-HT2B (h) it was 17%; on 5-HT6 (h), -3%.

A word on the inhibition: it is the relative decrease from the control value, in per cent.
